Experimental data from patent US9173840B2, “Multifunctional self-assembling polymeric nanosystems” (Northeastern University, priority 2008, dated 2015).
Like-named read-outs stand apart in the source and are kept apart here.

Columns and labels:
KHOSR2 cells [1] = assay: Fluorescence microscopy of cellular doxorubicin uptake; type: cell-based, human; settings: 3 hr incubation
Experimental: For cellular uptake studies, KHOS and KHOSR2 cells were seeded at densities of 5×10^5 cells/well in 6 well plates. MDR1 siRNA was applied to a well of KHOSR2 and incubated for 48 h. Following the incubation, doxorubicin was added to each well and was incubated for additional 3 hr. After incubation, the cells were washed, suspended in fresh RPMI 1640, then visualized on a Nikon Eclipse Ti-U fluorescence microscope equipped with a SPOT RT digital camera (Diagnostic Instruments, Inc., Sterling Heights, Mich.). Fluorescence intensity and cellular localization was analyzed at a wavelength of 488 nm in triplicate in random, different fields.
Cellular uptake studies were based on the fluorescence microscopic procedures of Venne et al. (Cancer Res. 56:3626-3629 (1996)). KHOS and KHOSR2 cells were seeded at densities of 5×10^5 cells/well in 6 well plates and incubated for 24 hr to allow cell attachment. […] After incubation, the cells were washed and resuspended with PBS and were then visualized on a Nikon Eclipse Ti-U fluorescence microscope (Nikon Corp.) equipped with a SPOT RT digital camera (Diagnostic Instruments, Inc., Sterling Heights, Mich.). Fluorescence intensity and cellular localization was analyzed at a wavelength of 488 nm in triplicate different fields at random.

U-2OSR2 cells = assay: In vitro cytotoxicity MTT assay, U-2OSR2; type: cell-based; settings: Homo sapiens
PARP = assay: Cellular apoptosis assay: cleavage of PARP by Western blot; type: cell-based, human; settings: KHOS and KHOSR2
Excerpt: Whole-cell lysates were immunoblotted with specific antibodies to PARP (Cell Signaling Technology) and its cleavage products. Positive immunoreactions were detected using Super Signal® West Pico Chemiluminescent Substrate. Bands were semiquantified by reverse image scanning densitometry with PhotoShop 7.0 (Adobe, San Jose, Calif.). An area of the gel image that was devoid of signal was assigned to be the background value. Each band of the protein representing cleaved PARP from KHOS or KHOSR2 treated with either doxorubicin, alone, or nanoparticle-loaded with doxorubicin at various concentrations, were analyzed for the density beyond background level. To ensure that the loading of the protein was equal and differences were not being observed because of one specimen having more protein than another, the band corresponding to β-actin was determined for each protein. The density of the protein band was normalized to the β-actin band for the protein and the ratio of the cleaved PARP was normalized by dividing by the ratio of the actin corresponding to each cleaved PARP.

U-2OS cells = assay: In vitro cytotoxicity MTT assay, U-2OS; settings: Homo sapiens, U2OS, read-out: IC50 anti-proliferative activity
KHOSR2 cells [2] = assay: In vitro cytotoxicity MTT assay, KHOSR2; settings: Homo sapiens

COc1cccc2c1C(=O)c1c(O)c3c(c(O)c1C2=O)C[C@@](O)(C(=O)CO)C[C@@H]3O[C@H]1C[C@H](N)[C@H](O)[C@H](C)O1 [doxorubicin]
subcellular distribution of doxorubicin fluorescence (KHOSR2 cells [1]; drug-resistant cell line, Example 2): primarily concentrated in the cytoplasm
subcellular distribution of doxorubicin fluorescence, free doxorubicin (KHOSR2 cells [1]; drug-resistant osteosarcoma cells): primarily concentrated in the cytoplasm
IC50 (U-2OSR2 cells; U-2OSR2, Example 1, nanoparticles loaded with 100 nM MDR1 siRNA, read-out: IC50 for doxorubicin co-treated with the MDR1 siRNA-loaded nanoparticles): 60 nM
IC50 (U-2OSR2 cells; U-2OSR2, Example 1, read-out: IC50 for doxorubicin, alone): 6000 nM
IC50 (U-2OSR2 cells; U-2OSR2, Example 2, FIG. 17D, read-out: IC50 anti-proliferative activity): 6000 nM
cleavage of PARP / apoptosis induction (PARP): higher concentrations of doxorubicin, alone, induced apoptosis
IC50 (U-2OS cells): 300 nM
IC50 (KHOSR2 cells [2]; MDR1, read-out: IC50 of doxorubicin co-treated with MDR1 siRNA-loaded nanoparticles): 100 nM
IC50 (KHOSR2 cells [2]; read-out: IC50 anti-proliferative activity): 3000 nM
IC50 (KHOSR2 cells [2]; read-out: IC50 of doxorubicin, alone): 10000 nM
